Measured values: paper PMC4282894, “Effect of Bile Salt Hydrolase Inhibitors on a Bile Salt Hydrolase from Lactobacillus acidophilus” (Pathogens, 2014)
Where a name gives a salt, the structure may show the parent alone.

Each compound was assayed against T1, L. acidophilus BSH (rBSH; LaciP) (Lactobacillus acidophilus, UniProt A5HKP3) (assay: two-step ninhydrin BSH assay (glycine release from glycocholic acid)). Details: not given.
T1 construct: full-length BSH (316 aa), C-terminal His tag, pET-21b(+), E. coli BL21(DE3), Ni-NTA; about 32 kDa on SDS-PAGE
Format: biochemical
From the text: two-step ninhydrin BSH assay (glycine release from glycocholic acid) on L. acidophilus BSH (rBSH; LaciP)

T1 sequence (A5HKP3 whole entry): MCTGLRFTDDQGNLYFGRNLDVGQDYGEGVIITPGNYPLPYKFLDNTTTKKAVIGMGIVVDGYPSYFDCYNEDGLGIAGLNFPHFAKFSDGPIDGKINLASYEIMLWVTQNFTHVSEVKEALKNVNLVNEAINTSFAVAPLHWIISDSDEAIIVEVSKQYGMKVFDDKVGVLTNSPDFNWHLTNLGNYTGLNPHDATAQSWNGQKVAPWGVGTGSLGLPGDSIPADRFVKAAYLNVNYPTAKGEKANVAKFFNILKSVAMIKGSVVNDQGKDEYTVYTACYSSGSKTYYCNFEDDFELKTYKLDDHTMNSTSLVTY

Row | inhibition at 2500 µM [%] | inhibition at 500 µM [%] | Structure (SMILES)
1 | 71.8 | – | O=C(/C=C/c1ccc(O)c(O)c1)OCCc1ccccc1 [Caffeic Acid Phenethyl Ester]
2 | 99.6 | – | CN(C)[C@@H]1C(O)=C(C(N)=O)C(=O)[C@@]2(O)C(O)=C3C(=O)c4c(O)ccc(Cl)c4[C@@H](O)[C@H]3C[C@@H]12 [Demeclocycline Hydrochloride]
3 | 98.3 | – | C[C@H]1c2cccc(O)c2C(O)=C2C(=O)[C@]3(O)C(O)=C(C(N)=O)C(=O)[C@@H](N(C)C)[C@@H]3[C@@H](O)[C@@H]21 [Doxycycline Hydrochloride]
4 | 52.8 | – | O=C(O[C@@H]1Cc2c(O)cc(O)cc2O[C@@H]1c1ccc(O)c(O)c1)c1cc(O)c(O)c(O)c1 [Epicatechin monogallate]
5 | 26.8 | – | CCC[C@@H]1C[C@@H](C(=O)N[C@@H]([C@H]2O[C@H](SC)[C@H](O)[C@@H](O)[C@H]2O)[C@@H](C)O)N(C)C1 [Lincomycin]
6 | 97.9 | – | CC1=CC(=O)c2ccccc2C1=O [Menadione]
7 | 99.2 | – | C=C1c2cccc(O)c2C(=O)C2=C(O)[C@]3(O)C(=O)C(C(N)=O)=C(O)[C@@H](N(C)C)[C@@H]3[C@@H](O)[C@H]12 [Methacycline Hydrochloride]
8 | 36.1 | – | O=c1c(O)cccc2cc(O)c(O)c(O)c12 [Purpurogallin]
9 | – | 96.5 | Cc1cc2nc3c(=O)[nH]c(=O)nc-3n(C[C@H](O)[C@H](O)[C@H](O)CO)c2cc1C [Riboflavin]

Row | Structure (SMILES) | inhibition at 2500 µM [%] | inhibition at 500 µM [%]
10 | O=c1c(O)c(-c2ccc(O)c(O)c2)oc2c(O)c(O)cc(O)c12 [Gossypetin] | 96.1 | –
11 | CN(C)[C@@H]1C(=O)C(C(N)=O)=C(O)[C@@]2(O)C(=O)C3=C(O)c4c(O)cccc4[C@@](C)(O)[C@H]3[C@H](O)[C@@H]12 [Oxytetracycline] | 99.6 | –

Same assay, conditions: 2500 µM; 5 mM glycocholic acid, about 10 mM DTT, 0.1 M sodium phosphate pH 6.0, 37 °C, 30 min preincubation

Row | Structure (SMILES) | % Inhibition [%]
12 | O=[N+]([O-])c1cc([As](=O)(O)O)ccc1O [Roxarsone] | 48.6
